Results from patent US4616081A, “Cephalosporin compounds” (Asahi Kasei Kogyo Kabushiki Kaisha, priority 1982, dated 1986).

Experiments:
Staph. aureus ATCC 6538P = assay: MIC against Staph. aureus ATCC 6538P; format: cell-based
Protocol: (§1) Nextly, antibacterial activity or minimum inhibitory concentration (MIC) was measured and the results are shown in Table 1 with respect to the following representative compounds according to the present invention. [drawing 19]
(§2) With respect to Compound Nos. 14 and 15, antibacterial activity or minimum inhibitory concentration (MIC) was measured and the results are shown in Table 2. [drawing 21]

[1] = system: Enterobact. cloacae GN336; assay: MIC against Enterobact. cloacae GN336; format: cell-based
Protocol: as §1, §2

E. coli NIHJ-JC2 = assay: MIC against E. coli NIHJ-JC2; format: cell-based
Protocol: as §1, §2

E. coli W3630 PS3 = assay: MIC against E. coli W3630 PS3; format: cell-based
Protocol: as §1, §2

[2] = system: Enterobact. aerogenes 0655; assay: MIC against Enterobact. aerogenes 0655; format: cell-based
Protocol: as §1, §2

Sarcina lutea ATCC 9341 = assay: MIC against Sarcina lutea ATCC 9341; format: cell-based
Protocol: as §1, §2

[3] = system: Citrobact. freundii GN346; assay: MIC against Citrobact. freundii GN346; format: cell-based
Protocol: as §1, §2

[4] = system: Klebs. pneumoniae ATCC 10031; assay: MIC against Klebs. pneumoniae ATCC 10031; format: cell-based
Protocol: as §1, §2

E. coli W3630 = assay: MIC against E. coli W3630; format: cell-based
Protocol: as §1, §2

[5] = maximum blood concentration after oral administration in Wister rats (HPLC and Bioassay); format: in vivo; details: Wister rat, fasted, 30 mg/kg, solution of pH 7 in phosphate buffer
Protocol: Further in the compounds according to the present invention, intestinal absorption is improved by the introduction of amino acids at the 3-position thereof. For example, comparison of the maximum blood concentration of the Compound Nos. 2, 3, 7, 8, 14, 15 and 23 with that of Comparative Compound (b) establishes and affirms the effects, as is shown below. In the above test, the method for measurement of blood concentration was as follows. Rate: Wister rat weighing 170 to 220 g Dose: 30 mg/kg Wister rats were fasted from the previous night but freely accessible to water. Each of drugs was administered as a solution of pH 7 in a phosphate buffer, when orally administered. The blood concentration was measured in accordance with the High Performance Liquid Chromatography (HPLC) method and the Bioassay method by using E. coli as bacteria for test.

Shigella sonnei E33 = assay: MIC against Shigella sonnei E33; format: cell-based
Protocol: as §1, §2

Serratia marcescens = assay: MIC against Serratia marcescens; format: cell-based
Protocol: as §1, §2

Proteus morganii 0239 = assay: MIC against Proteus morganii 0239; format: cell-based
Protocol: as §1, §2

Staph. aureus MS27 = assay: MIC against Staph. aureus MS27; format: cell-based
Protocol: as §1, §2

Staph. pyogenes NY5 = assay: MIC against Staph. pyogenes NY5; format: cell-based
[6] = system: Salm. enteritidis Gaertner; assay: MIC against Salm. enteritidis Gaertner; format: cell-based
Protocol: as §1, §2

[7] = acute toxicity test using mice, intraperitoneal; details: mouse, in vivo, ip
Source text: In addition to excellent antibacterial activity, the compounds of the present invention are low in toxicity. For example, in acute toxicity test using mice, the following results were obtained with Compound Nos. 2, 3, 7, 14, 15 and 23 which were intraperitoneally administered.

Proteus rettgeri ACR = assay: MIC against Proteus rettgeri ACR; format: cell-based
Protocol: as §1, §2

E. coli W3630 RGN14 = assay: MIC against E. coli W3630 RGN14; format: cell-based
E. coli W3630 RGN238 = assay: MIC against E. coli W3630 RGN238; format: cell-based
E. coli 0205 = assay: MIC against E. coli 0205; format: cell-based
[8] = Bacterial count inoculated 10^6 cells/ml
[9] = Bacterial count inoculated 10^8 cells/ml
[10] = Table 3, second listing of the strain, head prints 10^6 cells/ml

Q: Which “Minimum Inhibitory Concentration (MIC)” value (Staph. aureus ATCC 6538P; [8]) does the source give for CO/N=C(\C(=O)N[C@@H]1C(=O)N2C(C(=O)O)=C(CSc3nnc(CC(N)C(=O)O)s3)CS[C@H]12)c1csc(N)n1 (stereo partly shown) [Compound No. 7] here?
A: 1.6

Q: And the “Minimum Inhibitory Concentration (MIC)” value (Staph. aureus ATCC 6538P; [9])?
A: 3.1

Q: And the “Minimum Inhibitory Concentration (MIC)” value [1, 8]?
A: ≤ 0.2

Q: What about the “Minimum Inhibitory Concentration (MIC)” value [1, 9] of the same molecule?
A: 12.5

Q: What about the “Minimum Inhibitory Concentration (MIC)” value (E. coli NIHJ-JC2; [8]) of the same molecule?
A: 0.4

Q: And the “Minimum Inhibitory Concentration (MIC)” value (E. coli NIHJ-JC2; [9])?
A: 0.2

Q: And the “Minimum Inhibitory Concentration (MIC)” value (E. coli W3630 PS3; [8])?
A: ≤ 0.2

Q: What about the “Minimum Inhibitory Concentration (MIC)” value (E. coli W3630 PS3; [9]) of the same molecule?
A: 1.6

Q: What about the “Minimum Inhibitory Concentration (MIC)” value [2, 8] of the same molecule?
A: ≤ 0.2

Q: And the “Minimum Inhibitory Concentration (MIC)” value [2, 9]?
A: 25

Q: And the “Minimum Inhibitory Concentration (MIC)” value (Sarcina lutea ATCC 9341; [8])?
A: ≤ 0.2

Q: And the “Minimum Inhibitory Concentration (MIC)” value (Sarcina lutea ATCC 9341; [9])?
A: ≤ 0.2

Q: And the “Minimum Inhibitory Concentration (MIC)” value [3, 8]?
A: 50

Q: And the “Minimum Inhibitory Concentration (MIC)” value [3, 9]?
A: 100

Q: And the “Minimum Inhibitory Concentration (MIC)” value [4, 8]?
A: ≤ 0.2

Q: And the “Minimum Inhibitory Concentration (MIC)” value [4, 9]?
A: 0.8

Q: And the “Minimum Inhibitory Concentration (MIC)” value (E. coli W3630; [8])?
A: ≤ 0.2

Q: And the “Minimum Inhibitory Concentration (MIC)” value (E. coli W3630; [9])?
A: 0.8

Q: And the Cmax [5]?
A: 7000 ng/mL

Q: And the “Minimum Inhibitory Concentration (MIC)” value (Shigella sonnei E33; [8])?
A: ≤ 0.2

Q: What about the “Minimum Inhibitory Concentration (MIC)” value (Shigella sonnei E33; [9]) of the same molecule?
A: 0.2

Q: What about the “Minimum Inhibitory Concentration (MIC)” value (Serratia marcescens; [8]) of the same molecule?
A: ≤ 0.2

Q: And the “Minimum Inhibitory Concentration (MIC)” value (Serratia marcescens; [9])?
A: 100

Q: And the “Minimum Inhibitory Concentration (MIC)” value (Proteus morganii 0239; [8])?
A: ≤ 0.2

Q: What about the “Minimum Inhibitory Concentration (MIC)” value (Proteus morganii 0239; [9]) of the same molecule?
A: 25

Q: What about the “Minimum Inhibitory Concentration (MIC)” value (Staph. aureus MS27; [8]) of the same molecule?
A: 3.1

Q: What about the “Minimum Inhibitory Concentration (MIC)” value (Staph. aureus MS27; [9]) of the same molecule?
A: 3.1

Q: And the “Minimum Inhibitory Concentration (MIC)” value (Staph. pyogenes NY5; [8])?
A: ≤ 0.2

Q: And the “Minimum Inhibitory Concentration (MIC)” value (Staph. pyogenes NY5; [9])?
A: 0.2

Q: And the “Minimum Inhibitory Concentration (MIC)” value [6, 8]?
A: ≤ 0.2

Q: What about the “Minimum Inhibitory Concentration (MIC)” value [6, 9] of the same molecule?
A: 3.1

Q: And the LD50 [7]?
A: 9000 to 12000 mg/kg

Q: Which Cmax [5] does the source give for CC(C)(O/N=C(\C(=O)N[C@@H]1C(=O)N2C(C(=O)O)=C(CSc3nnc(CC(N)C(=O)O)s3)CS[C@H]12)c1csc(N)n1)C(=O)O (stereo partly shown) [Compound No. 8] here?
A: 8000 ng/mL

Q: For CO/N=C(\C(=O)N[C@@H]1C(=O)N2C(C(=O)O)=C(CSc3ncc(C[C@H](N)C(=O)O)[nH]3)CS[C@H]12)c1csc(N)n1 [Compound No. 23], which “Minimum Inhibitory Concentration (MIC)” value [1, 8] is on record?
A: ≤ 0.2

Q: What about the “Minimum Inhibitory Concentration (MIC)” value [1, 10] of the same molecule?
A: 25

Q: And the “Minimum Inhibitory Concentration (MIC)” value (E. coli NIHJ-JC2; [8])?
A: ≤ 0.2

Q: What about the “Minimum Inhibitory Concentration (MIC)” value (E. coli NIHJ-JC2; [10]) of the same molecule?
A: 12.5

Q: What about the “Minimum Inhibitory Concentration (MIC)” value [4, 8] of the same molecule?
A: ≤ 0.2

Q: And the “Minimum Inhibitory Concentration (MIC)” value [4, 10]?
A: 1.6

Q: And the “Minimum Inhibitory Concentration (MIC)” value (E. coli W3630; [8])?
A: ≤ 0.2

Q: What about the “Minimum Inhibitory Concentration (MIC)” value (E. coli W3630; [10]) of the same molecule?
A: 6.3

Q: And the Cmax [5]?
A: 6000 ng/mL

Q: And the “Minimum Inhibitory Concentration (MIC)” value (Shigella sonnei E33; [8])?
A: ≤ 0.2

Q: And the “Minimum Inhibitory Concentration (MIC)” value (Shigella sonnei E33; [10])?
A: 1.6

Q: And the “Minimum Inhibitory Concentration (MIC)” value (Serratia marcescens; [8])?
A: ≤ 0.2

Q: What about the “Minimum Inhibitory Concentration (MIC)” value (Serratia marcescens; [10]) of the same molecule?
A: > 100

Q: And the “Minimum Inhibitory Concentration (MIC)” value (Proteus rettgeri ACR; [8])?
A: ≤ 0.2

Q: And the “Minimum Inhibitory Concentration (MIC)” value (Proteus rettgeri ACR; [10])?
A: 25

Q: What about the “Minimum Inhibitory Concentration (MIC)” value (E. coli W3630 RGN14; [8]) of the same molecule?
A: ≤ 0.2

Q: And the “Minimum Inhibitory Concentration (MIC)” value (E. coli W3630 RGN14; [10])?
A: 6.3

Q: What about the “Minimum Inhibitory Concentration (MIC)” value (E. coli W3630 RGN238; [8]) of the same molecule?
A: ≤ 0.2

Q: What about the “Minimum Inhibitory Concentration (MIC)” value (E. coli W3630 RGN238; [10]) of the same molecule?
A: 25

Q: And the “Minimum Inhibitory Concentration (MIC)” value (E. coli 0205; [8])?
A: 0.4

Q: And the “Minimum Inhibitory Concentration (MIC)” value (E. coli 0205; [10])?
A: 12.5

Q: And the LD50 [7]?
A: 10000 to 12000 mg/kg
